target: T1, human oxytocin receptor (Homo sapiens, UniProt P30559); test: Oxytocin binding in CHO cell membranes expressing human oxytocin receptors ([3H]oxytocin radioligand binding); conditions: @ 100 nM, read-out: OT % inhibition @ 100 nM
T1 construct: host or cells: CHO cells, pcDNA3.1 vector
T1 sequence (P30559 1-389): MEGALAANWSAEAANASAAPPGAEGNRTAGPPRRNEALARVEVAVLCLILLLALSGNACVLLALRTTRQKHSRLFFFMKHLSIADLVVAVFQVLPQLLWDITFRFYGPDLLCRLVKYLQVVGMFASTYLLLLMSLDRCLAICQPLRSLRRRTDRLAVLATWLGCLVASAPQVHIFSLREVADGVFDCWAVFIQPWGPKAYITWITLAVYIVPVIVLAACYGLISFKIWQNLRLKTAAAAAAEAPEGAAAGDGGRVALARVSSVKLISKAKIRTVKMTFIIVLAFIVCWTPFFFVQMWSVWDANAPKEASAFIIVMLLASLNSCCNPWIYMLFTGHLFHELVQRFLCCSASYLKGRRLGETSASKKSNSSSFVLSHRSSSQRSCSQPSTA
Description: Oxytocin Binding in Chinese Hamster Ovary Cell Membranes Expressing Human Oxytocin Receptors
Chinese Hamster Ovary (CHO) cells stably transfected with the human oxytocin receptor (cf. Tanizawa et al., U.S. Pat. No. 5,466,584 (1995) to Rohto Pharmaceutical Co. Ltd., Osaka, Japan) were obtained from M. Thibonnier, Case Western Reserve University School of Medicine, Cleveland, Ohio.
A. Passaging and Amplification of Cells
CHO cells transfected with the human oxytocin receptors obtained from M. Thibonnier (pcDNA3.1 vector) are allowed to grow to confluency (approx. >90%) in T-150 flasks under sterile conditions, in a cell culture medium of F-12 Nutrient Mixture (HAM) with L-glutamine (Gibco Cat. #11765-054) containing 15 mM HEPES (Gibco Cat. #15630-080), 1% antibiotic/antimycotic (add 5 mL 100×, Gibco Cat. #15240-062 per 500 mL F-12), 400 μg/mL of Geneticin (add 4 mL of 50 mg/mL per 500 mL F-12) and 10% Fetal Bovine Serum (Qualified, heat inactivated, Gibco Cat. #16140-063). The medium is removed by aspiration and the cells are washed with 10 mL of Hank's Balanced Salt solution (Gibco Cat. #14175-095). The salt solution is removed by aspiration and the cells trypsinized with 5 mL of trypsin-EDTA (0.05% trypsin, 0.53 mM EDTA-4Na, Gibco Cat. #25300-070) for 1 min. The trypsin is removed by aspiration and the cells dislodged by tapping. Cell Culture medium (e.g. 30 mL for 1:30 split) is immediately added and mixed well to inactivate trypsin. 1 mL of detached cells is added to new culture flasks containing fresh Cell Culture medium (e.g. into 25 mL per T-150 flask), and mixed gently. The cells are incubated at 37° C. in 5% CO2. The medium is changed at 3 to 4 days interval (or as appropriate). The cells grow to confluency (approx. >75%-95%) within 7-8 days. All steps are done under sterile conditions.
The cells are washed twice gently with Hank's Balanced Salt solution (e.g., use 10 mL per T-1 50 flask). The excess solution is removed and the cells bathed for 15-30 min. in an enzyme-free Cell Dissociation Buffer (e.g., use 8 mL Hank's Based, Gibco Cat. #13150-016 per T-150 flask) until cells are loosened. The contents are transferred to centrifuge tubes (50 mL size) kept in ice bath. All subsequent steps are done at 4° C. The tubes are centrifuged at 300×g for 15 min (1380 rpm on SORVAL, Model RT6000D, using rotor for 50 mL tubes). The supernatant is discarded and the cells suspended in homogenizing buffer (10 mM Tris-HCl containing 0.25 M sucrose and 1 mM EDTA, pH 7.4) ensuring that the volume of the buffer is about ten times the volume of the cell pellet. The cells are pooled into a centrifuge tube (50 mL) and homogenized with a Polytron at setting 6 for 10 sec. The homogenate is transferred into a Potter-Elvjehm homogenizer and homogenized with 3 strokes. The homogenate is centrifuged at 1500×g for 10 min at 4° C. (3100 rpm using SORVAL, model RT6000D, using rotor for 50 mL tubes). The pellet is discarded. The supernatant is centrifuged at 100,000×g for 60 min. at 4° C. (Beckman L8-80M ultracentrifuge; spin at 37,500 rpm with rotor type 70 Ti for 50 mL tubes; 38,000 rpm with type 80Ti for 15 mL tubes; or 35,800 rpm with rotor type 45Ti). The supernantant is discarded and the pellet suspended in 3 to 4 mL of Tris buffer (50 mM TRIS—HCl, pH 7.4). The protein content is estimated by the Bradford or Lowry method. The volume of the membrane suspension is adjusted with the membrane buffer (50 mM Tris-HCl containing 0.1% BSA and 0.1 mM PMSF) to give 3.0 mg/mL (or as appropriate) of protein. The membranes are aliquoted and stored at −70° C.
C. Radioligand Binding Assay
In wells of a 96-well format microtiter plate, is added 90, 110 or 130 μL (to make up a final volume of 200 μL) of assay buffer containing 50 mM of Tris-HCl (pH 7.4), […], 1 mg % aprotinin, 1 mg % leupeptin, 2 mg % 1,10-phenanthroline, 10 mg % trypsin inhibitor, and 0.1 mM PMSF. […]

SMILES	inhibition at 0.1 µM [%]
COc1cc2c(cc1OC)N(C(=O)c1ccc(-c3ccccc3OC)c(C)c1)Cc1ccc(C(=O)N(C)C[C@H](O)[C@@H](O)[C@H](O)[C@H](O)CO)n1C2 [Example 37, 7,8-Dimethoxy-10-[(2′-methoxy-2-methyl-[1,1′-biphenyl]-4-yl)carbonyl]-10,11-dihydro-5H-pyrrolo[2,1-c][1,4]benzodiazepine-3-carboxylic acid methyl-[(2S, 3R, 4R, 5R)-2,3,4,5,6-pentahydroxy-hexyl)-amide]	53
COc1cc2c(cc1OC)N(C(=O)c1ccc(-c3ccccc3C(F)(F)F)c(C)c1)Cc1ccc(C(=O)N(C)CC(O)CO)n1C2 (stereo not shown) [Example 18, N-(2,3-Dihydroxypropyl)-7,8-dimethoxy-N-methyl-10-{[2-methyl-2′-trifluoromethyl-[1,1′-biphenyl]-4-yl]carbonyl}-10,11-dihydro-5H-pyrrolo[2,1-c][1,4]benzodiazepine-3-carboxamide]	36

The next lines start with the values.

inhibition at 0.1 µM [%]	SMILES
93	COc1ccccc1-c1ccc(C(=O)N2Cc3ccc(C(=O)N4CCN(CCO)CC4)n3Cc3ccccc32)cc1C [Example 40, [4-(2-Hydroxyethyl)-1-piperazinyl]{10-[(2′-methoxy-2-methyl[1,1′-biphenyl]-4yl)carbonyl]-10,11-dihydro-5H-pyrrolo[2,1-c][1,4]benzodiazepin-3-yl}methanone]
101	COc1ccccc1-c1ccc(C(=O)N2Cc3ccc(C(=O)N(C)C[C@H](O)CO)n3Cc3ccccc32)cc1C (single isomer, unassigned) [Example 15]
83	COc1cccc(-c2ccc(C(=O)N3Cc4ccc(C(=O)N5CCN(CCO)CC5)n4Cc4ccccc43)cc2C)c1 [Example 44, [4-(2-Hydroxyethyl)-1-piperazinyl]{10-[(3′-methoxy-2-methyl[1,1′-biphenyl]-4yl)carbonyl]-10,11-dihydro-5H-pyrrolo[2,1-c][1,4]benzodiazepin-3-yl}methanone]
20	O=C(c1ccc2n1Cc1ccccc1N(C(=O)c1ccc(-c3cccc4ccccc34)cc1Cl)C2)N1CCN(CCO)CC1 [Example 25, 2-{4-[10-{[2-Chloro-4-(naphthalen-1-yl)phenyl]carbonyl}-(10,11-dihydro-5H-pyrrolo[2,1-c][1,4]benzodiazepin-3-yl)carbonyl]piperazine-1-yl}-1-hydroxyethane]
101	COc1ccccc1-c1ccc(C(=O)N2Cc3ccc(C(=O)N(C)C[C@@H](O)CO)n3Cc3ccccc32)cc1C (single isomer, unassigned) [Example 16]
83	COc1cccc(-c2ccc(C(=O)N3Cc4ccc(C(=O)N5CCN(CCO)CC5)n4Cc4ccccc43)cc2OC)c1 [Example 50, {10-[(2,3′-Dimethoxy[1,1′-biphenyl]-4-yl)carbonyl]-10,11-dihydro-5H-pyrrolo[2,1-c][1,4]benzodiazepin-3-yl}[4-(2-hydroxyethyl)-1-piperazinyl]methanone]
81	COc1cccc(-c2cc(OC)c(C(=O)N3Cc4ccc(C(=O)N5CCN(CCO)CC5)n4Cc4ccccc43)cc2Cl)c1 [Example 49, {10-[(6-Chloro-3,3′-dimethoxy[1,1′-biphenyl]-4-yl)carbonyl]-10,11-dihydro-5H-pyrrolo[2,1-c][1,4]benzodiazepin-3-yl}[4-(2-hydroxyethyl)-1-piperazinyl]methanone]

same assay, conditions: value printed in parentheses, read-out: OT (IC50)

SMILES	IC50 [nM]
COc1cc(C(=O)N2Cc3ccc(C(=O)N(C)C[C@@H](O)[C@H](O)[C@H](O)[C@@H](O)CO)n3Cc3ccccc32)ccc1-c1ccccc1C(F)(F)F (stereo in doubt) [Example 23, 10-{[2-Methoxy-2′-trifluoromethyl-[1,1′-biphenyl]-4-yl]carbonyl}-N-methyl-N-[(2R,3S,4R,5S)-2,3,4,5,6-pentahydroxyhexyl]-10,11-dihydro-5H-pyrrolo[2,1-c][1,4]benzodiazepine-3-carboxamide]	4.09
COc1cc(C(=O)N2Cc3ccc(C(=O)N(C)CC(O)CN(C)C)n3Cc3ccccc32)ccc1-c1ccccc1C(F)(F)F (stereo not shown) [Example 22, N-[(3-Dimethylamino)-2-hydroxy-propyl]-10-{[2-methoxy-2′-trifluoromethyl-[1,1′-biphenyl]-4-yl]carbonyl}-N-methyl-10,11-dihydro-5H-pyrrolo[2,1-c][1,4]benzodiazepine-3-carboxamide]	1.47
Cc1cc(C(=O)N2Cc3ccc(C(=O)N(C)C[C@@H]4OC(=O)O[C@H]4[C@H](O)[C@H]4COC(=O)O4)n3Cc3ccccc32)ccc1-c1ccccc1C(F)(F)F [Example 12, N-[((4S,5S)-5-{(R)-Hydroxy[(4R)-2-oxo-1,3-dioxolan-4-yl]methyl}-2-oxo-1,3-dioxolan-4-yl)methyl]-N-methyl-10-{[2-methyl-2′-(trifluoromethyl)[1,1′-biphenyl]-4-yl]carbonyl}-10,11-dihydro-5H-pyrrolo[2,1-c]benzodiazepine-3-carboxamide]	4.27
Cc1cc(C(=O)N2Cc3ccc(C(=O)N(CCO)CCO)n3Cc3ccccc32)ccc1-c1ccccc1C(F)(F)F [Example 1, 10-[(2-Methyl-2′-trifluoromethyl-[1,1′-biphenyl]-4-yl)carbonyl]-10,11-dihydro-5H-pyrrolo[2,1-c][1,4]benzodiazepine-3-carboxylic acid bis-(2-hydroxy-ethyl)-amide]	1.37

Now from value to compound:

IC50 [nM]	SMILES
25.1	Cc1cc(C(=O)N2Cc3ccc(C(=O)N4CCN(C[C@@H](O)CO)CC4)n3Cc3ccccc32)ccc1-c1ccccc1C(F)(F)F [Example 6, (2R)-3-{4-[(10-{[2-Methyl-2′-trifluoromethyl-[1,1′-biphenyl]-4-yl]carbonyl}-10,11-dihydro-5H-pyrrolo[2,1-c][1,4]benzodiazepin-3-yl)carbonyl]piperazin-1-yl}propane-1,2-diol]
30.7	COCCN1CCN(C(=O)c2ccc3n2Cc2ccccc2N(C(=O)c2ccc(-c4ccccc4C(F)(F)F)c(C)c2)C3)CC1 [Example 7, Methyl 2-{4-[(10-{[2-methyl-2′-trifluoromethyl-[1,1′-biphenyl]-4-yl]carbonyl}-10,11-dihydro-5H-pyrrolo[2,1-c][1,4]benzodiazepin-3-yl)carbonyl]piperazin-1-yl}ethyl ether]
7.55	COC[C@H](O)CN1CCN(C(=O)c2ccc3n2Cc2ccccc2N(C(=O)c2ccc(-c4ccccc4C(F)(F)F)c(C)c2)C3)CC1 [Example 8, (2R)-1-Methoxy-3-{4-[(10-{[2-methyl-2′-trifluoromethyl-[1,1′-biphenyl]-4-yl]carbonyl}-10,11-dihydro-5H-pyrrolo[2,1-c][1,4]benzodiazepin-3-yl)carbonyl]piperazin-1-yl}propan-2-ol]

— US6900200B2, “Tricyclic hydroxy carboxamides and derivatives thereof tocolytic oxytocin receptor antagonists” (Wyeth, priority 2001, dated 2005)
